Results as given in US20100143506A1, “APPARATUS AND METHOD FOR TREATMENT OF MICROORGANISMS DURING SUGAR PRODUCTION AND SUGAR-BASED FE[…]” (priority 2008, published 2010).

Experiments:
bacteria = assay: Plant trial: lactate in the fermentor while the thin juice line is treated with chlorine dioxide
Experimental: A thin juice line at a sugar plant that fed into a distillery for fermentation was treated with chlorine dioxide according to the present method. Previously the thin juice line had been treated using sulfuric acid to decrease the pH. The trial evaluated the bacterial efficacy of chlorine dioxide at an elevated pH in order to reduce sulfuric acid use without causing a detrimental effect to the yeast or fermentation.
In the trial, 90% pure chlorine dioxide solution was generated. Twenty parts per million (ppm) of chlorine dioxide was introduced into the thin juice line. Thin juice samples were collected before during and after the trial. The samples were examined for chlorite, chlorate and chloride residuals.
During the trial, bacterial samples were also collected and analyzed at various locations in the system.
The data indicates a low level of lactate before chlorine dioxide was introduced at the normal pH of 3.5. […] On day 18 the equipment had to be shutdown due to an unrelated issue.

fermentation = conditions: cited from earlier work
Weisella confusa = conditions: cited from earlier work

[O][Cl+][O-] [chlorine dioxide]
Lactate Concentration (bacteria; Day of Trial 4, Fifth location in the Fermentor): 0.6 g/L | Lactate Concentration (bacteria; Day of Trial 4, First location in the Fermentor): 0.39 g/L | Lactate Concentration (bacteria; Day of Trial 4, Fourth location in the Fermentor): 0.58 g/L | Lactate Concentration (bacteria; Day of Trial 4, Second location in the Fermentor): 0.6 g/L | Lactate Concentration (bacteria; Day of Trial 4, Third location in the Fermentor): 0.6 g/L | Lactate Concentration (bacteria; Day of Trial 5, Fifth location in the Fermentor): 0.75 g/L | Lactate Concentration (bacteria; Day of Trial 5, First location in the Fermentor): 0.44 g/L | Lactate Concentration (bacteria; Day of Trial 5, Fourth location in the Fermentor): 0.69 g/L | Lactate Concentration (bacteria; Day of Trial 5, Second location in the Fermentor): 0.66 g/L | Lactate Concentration (bacteria; Day of Trial 5, Third location in the Fermentor): 0.71 g/L | Lactate Concentration (bacteria; Day of Trial 6, Fifth location in the Fermentor): 0.69 g/L | Lactate Concentration (bacteria; Day of Trial 6, First location in the Fermentor): 0.39 g/L | Lactate Concentration (bacteria; Day of Trial 6, Fourth location in the Fermentor): 0.71 g/L | Lactate Concentration (bacteria; Day of Trial 6, Second location in the Fermentor): 0.54 g/L | Lactate Concentration (bacteria; Day of Trial 6, Third location in the Fermentor): 0.62 g/L | Lactate Concentration (bacteria; Day of Trial 7, Fifth location in the Fermentor): 0.9 g/L | Lactate Concentration (bacteria; Day of Trial 7, First location in the Fermentor): 0.51 g/L | Lactate Concentration (bacteria; Day of Trial 7, Fourth location in the Fermentor): 0.88 g/L | Lactate Concentration (bacteria; Day of Trial 7, Second location in the Fermentor): 0.76 g/L | Lactate Concentration (bacteria; Day of Trial 7, Third location in the Fermentor): 0.81 g/L | Lactate Concentration (bacteria; Day of Trial 8, Fifth location in the Fermentor): 0.75 g/L | Lactate Concentration (bacteria; Day of Trial 8, First location in the Fermentor): 0.44 g/L | Lactate Concentration (bacteria; Day of Trial 8, Fourth location in the Fermentor): 0.7 g/L | Lactate Concentration (bacteria; Day of Trial 8, Second location in the Fermentor): 0.55 g/L | Lactate Concentration (bacteria; Day of Trial 8, Third location in the Fermentor): 0.64 g/L | Lactate Concentration (bacteria; Day of Trial 9, Fifth location in the Fermentor): 0.83 g/L | Lactate Concentration (bacteria; Day of Trial 9, First location in the Fermentor): 0.5 g/L | Lactate Concentration (bacteria; Day of Trial 9, Fourth location in the Fermentor): 0.78 g/L | Lactate Concentration (bacteria; Day of Trial 9, Second location in the Fermentor): 0.68 g/L | Lactate Concentration (bacteria; Day of Trial 9, Third location in the Fermentor): 0.74 g/L | Lactate Concentration (bacteria; Day of Trial 10, Fifth location in the Fermentor): 0.84 g/L | Lactate Concentration (bacteria; Day of Trial 10, First location in the Fermentor): 0.55 g/L | Lactate Concentration (bacteria; Day of Trial 10, Fourth location in the Fermentor): 0.83 g/L | Lactate Concentration (bacteria; Day of Trial 10, Second location in the Fermentor): 0.77 g/L | Lactate Concentration (bacteria; Day of Trial 10, Third location in the Fermentor): 0.82 g/L | Lactate Concentration (bacteria; Day of Trial 11, Fifth location in the Fermentor): 0.8 g/L | Lactate Concentration (bacteria; Day of Trial 11, First location in the Fermentor): 0.4 g/L | Lactate Concentration (bacteria; Day of Trial 11, Fourth location in the Fermentor): 0.65 g/L | Lactate Concentration (bacteria; Day of Trial 11, Second location in the Fermentor): 0.5 g/L | Lactate Concentration (bacteria; Day of Trial 11, Third location in the Fermentor): 0.55 g/L | Lactate Concentration (bacteria; Day of Trial 13, Fifth location in the Fermentor): 0.42 g/L | Lactate Concentration (bacteria; Day of Trial 13, First location in the Fermentor): 0.22 g/L | Lactate Concentration (bacteria; Day of Trial 13, Fourth location in the Fermentor): 0.39 g/L | Lactate Concentration (bacteria; Day of Trial 13, Second location in the Fermentor): 0.33 g/L | Lactate Concentration (bacteria; Day of Trial 13, Third location in the Fermentor): 0.36 g/L | Lactate Concentration (bacteria; Day of Trial 14, Fifth location in the Fermentor): 0.51 g/L | Lactate Concentration (bacteria; Day of Trial 14, First location in the Fermentor): 0.22 g/L | Lactate Concentration (bacteria; Day of Trial 14, Fourth location in the Fermentor): 0.4 g/L | Lactate Concentration (bacteria; Day of Trial 14, Second location in the Fermentor): 0.36 g/L | Lactate Concentration (bacteria; Day of Trial 14, Third location in the Fermentor): 0.37 g/L | Lactate Concentration (bacteria; Day of Trial 15, Fifth location in the Fermentor): 0.5 g/L | Lactate Concentration (bacteria; Day of Trial 15, First location in the Fermentor): 0.22 g/L | Lactate Concentration (bacteria; Day of Trial 15, Fourth location in the Fermentor): 0.4 g/L | Lactate Concentration (bacteria; Day of Trial 15, Second location in the Fermentor): 0.32 g/L | Lactate Concentration (bacteria; Day of Trial 15, Third location in the Fermentor): 0.34 g/L | Lactate Concentration (bacteria; Day of Trial 16, Fifth location in the Fermentor): 0.6 g/L | Lactate Concentration (bacteria; Day of Trial 16, First location in the Fermentor): 0.3 g/L | Lactate Concentration (bacteria; Day of Trial 16, Fourth location in the Fermentor): 0.5 g/L | Lactate Concentration (bacteria; Day of Trial 16, Second location in the Fermentor): 0.4 g/L | Lactate Concentration (bacteria; Day of Trial 16, Third location in the Fermentor): 0.45 g/L | Lactate Concentration (bacteria; Day of Trial 17, Fifth location in the Fermentor): 0.67 g/L | Lactate Concentration (bacteria; Day of Trial 17, First location in the Fermentor): 0.29 g/L | Lactate Concentration (bacteria; Day of Trial 17, Fourth location in the Fermentor): 0.57 g/L | Lactate Concentration (bacteria; Day of Trial 17, Second location in the Fermentor): 0.43 g/L | Lactate Concentration (bacteria; Day of Trial 17, Third location in the Fermentor): 0.5 g/L | Lactate Concentration (bacteria; Day of Trial 18, Fifth location in the Fermentor): 0.62 g/L | Lactate Concentration (bacteria; Day of Trial 18, First location in the Fermentor): 0.43 g/L | Lactate Concentration (bacteria; Day of Trial 18, Fourth location in the Fermentor): 0.6 g/L | Lactate Concentration (bacteria; Day of Trial 18, Second location in the Fermentor): 0.48 g/L | Lactate Concentration (bacteria; Day of Trial 18, Third location in the Fermentor): 0.54 g/L | Lactate Concentration (bacteria; Day of Trial 19, Fifth location in the Fermentor): 1.1 g/L | Lactate Concentration (bacteria; Day of Trial 19, First location in the Fermentor): 0.4 g/L | Lactate Concentration (bacteria; Day of Trial 19, Fourth location in the Fermentor): 0.8 g/L | Lactate Concentration (bacteria; Day of Trial 19, Second location in the Fermentor): 0.6 g/L | Lactate Concentration (bacteria; Day of Trial 19, Third location in the Fermentor): 0.7 g/L | Lactate Concentration (bacteria; Day of Trial 20, Fifth location in the Fermentor): 0.85 g/L | Lactate Concentration (bacteria; Day of Trial 20, First location in the Fermentor): 0.55 g/L | Lactate Concentration (bacteria; Day of Trial 20, Fourth location in the Fermentor): 0.5 g/L | Lactate Concentration (bacteria; Day of Trial 20, Second location in the Fermentor): 0.7 g/L | Lactate Concentration (bacteria; Day of Trial 20, Third location in the Fermentor): 0.75 g/L | Lactate Concentration (bacteria; Day of Trial 21, Fifth location in the Fermentor): 1.36 g/L | Lactate Concentration (bacteria; Day of Trial 21, First location in the Fermentor): 0.9 g/L | Lactate Concentration (bacteria; Day of Trial 21, Fourth location in the Fermentor): 1.35 g/L | Lactate Concentration (bacteria; Day of Trial 21, Second location in the Fermentor): 1.16 g/L | Lactate Concentration (bacteria; Day of Trial 21, Third location in the Fermentor): 1.24 g/L | Lactate Concentration (bacteria; Day of Trial 22, Fifth location in the Fermentor): 1.66 g/L | Lactate Concentration (bacteria; Day of Trial 22, First location in the Fermentor): 1.31 g/L | Lactate Concentration (bacteria; Day of Trial 22, Fourth location in the Fermentor): 2.04 g/L | Lactate Concentration (bacteria; Day of Trial 22, Second location in the Fermentor): 1.73 g/L | Lactate Concentration (bacteria; Day of Trial 22, Third location in the Fermentor): 2.01 g/L | Lactate Concentration (bacteria; Day of Trial 23, Fifth location in the Fermentor): 2.15 g/L | Lactate Concentration (bacteria; Day of Trial 23, First location in the Fermentor): 1.39 g/L | Lactate Concentration (bacteria; Day of Trial 23, Fourth location in the Fermentor): 2.19 g/L | Lactate Concentration (bacteria; Day of Trial 23, Second location in the Fermentor): 1.75 g/L | Lactate Concentration (bacteria; Day of Trial 23, Third location in the Fermentor): 2.01 g/L | Lactate Concentration (bacteria; Day of Trial 24, Fifth location in the Fermentor): 2.13 g/L | Lactate Concentration (bacteria; Day of Trial 24, First location in the Fermentor): 1.12 g/L | Lactate Concentration (bacteria; Day of Trial 24, Fourth location in the Fermentor): 2 g/L | Lactate Concentration (bacteria; Day of Trial 24, Second location in the Fermentor): 1.41 g/L | Lactate Concentration (bacteria; Day of Trial 24, Third location in the Fermentor): 1.73 g/L | lactate trend once treatment was started (bacteria; chlorine dioxide at 20 ppm with a pH elevation to 4): trended downward

Virginiamycin
concentration that will suppress fermentation (fermentation): over 6 mg/L | concentration required to inhibit growth of Weisella confusa (Weisella confusa): over 25 mg/L
